# Reference: PubChem BioAssay AID1963840 (Molecular Pharmacology Branch, DTP, NCI, 2024)
# Where “and” joins values, the source holds several entries; their conditions need not be identical. Identical values can stand only once.
# Tested on: 695427-040-R-J1-PDC complex spheroid viability
# Assay: Anticancer human tumor 695427-040-R-J1-PDC patient-derived colon adenocarcinoma cell line growth inhibition [POLQ]
# Details: for viability, T/C: stronger effect = lower value
# Experimental: Multicellular complex tumor spheroid response to Polymerase (POL) inhibitors (novobiocin, ART-558, RP6685) in combination with a variety of drugs and investigational agents in selected tumor cell lines
# The POL inhibitors (novobiocin, ART-558, and RP6685) were evaluated both individually and in combination with standard of care and investigational anticancer small molecules within a complex spheroid model of solid tumors. . Complex spheroids include a stromal component modeled by human endothelial cells (HUVEC) and fibroblasts modeled by human mesenchymal stem cells (MSCs). The concentration ranges selected for each drug and investigational agent were based upon clinically achievable concentrations if the clinical Cmax of the agent was known.
# Compounds. The drugs and investigational agents: novobiocin (NSC847541), ART-558 (NSC835418), RP-6685 (NSC848927), peposertib (NSC802822), ceralasertib (NSC780249), elimusertib (NSC800525), camonsertib (NSC841442), AZD-1390 (NSC803789), olaparib (NSC753686), talazoparib (NSC767125), rucaparib (NSC756644), sotorasib (NSC818433), MRTX-1133 (NSC836407), SN-38 (NSC673596), topotecan (NSC609699), epotoside (NSC141540), doxorubicin (NSC123127), gemcitabine (NSC613327), 5-fluorouracil (NSC19893), paclitaxel (NSC125973), vemurafenib (NSC761431), MSA-2 (NSC828583), SN-011 (NSC837082), adavosertib (NSC754352), prexasertib (NSC758257), carboplatin (NSC241240) and oxaliplatin (NSC266046), were obtained from the National Cancer Institute (NCI) Developmental Therapeutics Program Chemical Repository (21). The FDA-approved anticancer drug set is available from the Developmental Therapeutics Program at https://dtp.cancer.gov/organization/dscb/obtaining/. […] The stock solutions were prepared in dimethyl sulfoxide (DMSO, Sigma-Aldrich, St. Louis, MO, cat. D2650), except for the platinum compounds which were prepared in saline (Quality Biological, Gaithersburg, MD, cat. 114-055-101), at 800-fold the tested concentration and stored at -70 degrees C prior to their use. All drugs and investigational agents were tested over a range starting from a high concentration at or near the clinical Cmax and decreasing in half-log increments. If the clinical Cmax for an agent had not been determined, the highest concentration tested was 10 microM, except for SN-38, which was tested at a high concentration of 1 microM.
# Cell Culture. All cells were maintained in an incubator at 37 degrees C and 5% CO2 with 95% humidity. The PDC lines were cultured according to standard operating procedures established by the NCI PDMR (https://pdmr.cancer.gov). Table 3 of the manuscript, lists the cell lines along with the number of the three cell types plated to form the mct-spheroids and media for tumor cell growth. After thawing, all PDC lines, except 997537-175-T-J1-PDC and 415267-285-R-J2-PDC, were cultured in Matrigel-coated flasks prepared with a working solution of 1X Ham's F-12 nutrient mix, without supplementation (Thermo Fisher Scientific, cat. 11765054), 100 U/mL penicillin-streptomycin (Thermo Fisher Scientific, cat. 15140122), and 2.5% Matrigel (Corning Inc., Corning, NY, cat. 354248) for the first three passages. The two PDC lines 997537-175-T-J1-PDC and 415267-285-R-J2-PDC were cultured on uncoated flasks. The 857933-349-R-J2-PDC line was cultured in 6C/Colon 1B media containing advanced DMEM/F-12 (Thermo Fisher Scientific, cat. 12634028), 10 mM HEPES (Thermo Fisher Scientific, cat. 15630080), 1X GlutaMAX supplement (Thermo Fisher Scientific, cat. 35050061), 0.1 mg/mL primocin (InvivoGen, San Diego, CA, cat. ant-pm-2), 10% defined fetal bovine serum, heat inactivated (HyClone Laboratories Inc., Logan, UT, cat. SH30070.03HI), 50% L-WRN conditioned media (ATCC, cat. CRL-3276), 1.25 mM N-Acetyl-L-cysteine (Sigma-Aldrich, cat. A9165), 10 mM nicotinamide (Sigma-Aldrich, cat. N0636), 1X B-27 supplement (Thermo Fisher Scientific, cat. 17504044), 1X N-2 supplement (Thermo Fisher Scientific, cat. […]
# 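Further: spheroids exposed to compounds for seven days.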
# 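Wherever viability, T/C is given: 100% = DMSO vehicle control viability.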
smiles,measurement,setting,value
COc1ccc([C@@H](O)c2cc(-c3ncnc4cc(N5CCOCC5)ccc34)c(F)cc2Cl)nn1,"viability, T/C",compound 0.0316 µM,108% and 103% (2×)
same,"viability, T/C",compound 0.1 µM,91.8% and 86.1% and 99.5%
same,"viability, T/C",compound 0.316 µM,92.8% and 93.3% and 97.7%
same,"viability, T/C",compound 1 µM,91.9% and 94.2% and 96.2%
same,"viability, T/C",compound 3.16 µM,80.1% and 82.6% and 85%
same,"viability, T/C",compound 10 µM,50% and 59% and 56.5%
same,IC50,curve of compound,> 10000 nM
C=CCn1c(=O)c2cnc(Nc3ccc(N4CCN(C)CC4)cc3)nc2n1-c1cccc(C(C)(C)O)n1 + COC1C(OC(N)=O)C(O)C(Oc2ccc3c(O)c(NC(=O)c4ccc(O)c(CC=C(C)C)c4)c(=O)oc3c2C)OC1(C)C,IC50,"curve of first compound, second compound 0.0316 µM",> 1000 nM
same,IC50,"curve of first compound, second compound 0.1 µM",> 1000 nM
same,IC50,"curve of first compound, second compound 0.316 µM",> 1000 nM
same,IC50,"curve of first compound, second compound 1 µM",> 1000 nM
same,IC50,"curve of first compound, second compound 3.16 µM",> 1000 nM
same,IC50,"curve of first compound, second compound 10 µM",> 1000 nM
same,"viability, T/C","second compound 0.0316 µM, first compound 0.00316 µM",98.2%
same,"viability, T/C","second compound 0.0316 µM, first compound 0.01 µM",91.8%
same,"viability, T/C","second compound 0.0316 µM, first compound 0.0316 µM",110%
same,"viability, T/C","second compound 0.0316 µM, first compound 0.1 µM",95.3%
same,"viability, T/C","second compound 0.0316 µM, first compound 0.316 µM",95.5%
same,"viability, T/C","second compound 0.0316 µM, first compound 1 µM",82.2%
same,"viability, T/C","second compound 0.1 µM, first compound 0.00316 µM",103%
same,"viability, T/C","second compound 0.1 µM, first compound 0.01 µM",103%
same,"viability, T/C","second compound 0.1 µM, first compound 0.0316 µM",96.3%
same,"viability, T/C","second compound 0.1 µM, first compound 0.1 µM",102%
same,"viability, T/C","second compound 0.1 µM, first compound 0.316 µM",98.4%
same,"viability, T/C","second compound 0.1 µM, first compound 1 µM",80.3%
same,"viability, T/C","second compound 0.316 µM, first compound 0.00316 µM",105%
same,"viability, T/C","second compound 0.316 µM, first compound 0.01 µM",114%
same,"viability, T/C","second compound 0.316 µM, first compound 0.0316 µM",103%
same,"viability, T/C","second compound 0.316 µM, first compound 0.1 µM",105%
same,"viability, T/C","second compound 0.316 µM, first compound 0.316 µM",91.8%
same,"viability, T/C","second compound 0.316 µM, first compound 1 µM",70.9%
same,"viability, T/C","second compound 1 µM, first compound 0.00316 µM",99.2%
same,"viability, T/C","second compound 1 µM, first compound 0.01 µM",98.5%
same,"viability, T/C","second compound 1 µM, first compound 0.0316 µM",101%
same,"viability, T/C","second compound 1 µM, first compound 0.1 µM",96.3%
same,"viability, T/C","second compound 1 µM, first compound 0.316 µM",97.3%
same,"viability, T/C","second compound 1 µM, first compound 1 µM",72.4%
same,"viability, T/C","second compound 3.16 µM, first compound 0.00316 µM",92.3%
same,"viability, T/C","second compound 3.16 µM, first compound 0.01 µM",102%
same,"viability, T/C","second compound 3.16 µM, first compound 0.0316 µM",106%
same,"viability, T/C","second compound 3.16 µM, first compound 0.1 µM",97.4%
same,"viability, T/C","second compound 3.16 µM, first compound 0.316 µM",95.3%
same,"viability, T/C","second compound 3.16 µM, first compound 1 µM",79.1%
same,"viability, T/C","second compound 10 µM, first compound 0.00316 µM",97.9%
same,"viability, T/C","second compound 10 µM, first compound 0.01 µM",95%
same,"viability, T/C","second compound 10 µM, first compound 0.0316 µM",106%
same,"viability, T/C","second compound 10 µM, first compound 0.1 µM",101%
same,"viability, T/C","second compound 10 µM, first compound 0.316 µM",103%
same,"viability, T/C","second compound 10 µM, first compound 1 µM",71.7%
CC(C)n1c(=O)n(C)c2cnc3cc(F)c(-c4ccc(OCCCN5CCCCC5)nc4)cc3c21,"viability, T/C",compound 0.0316 µM,96.7% and 98.1% and 112%
same,"viability, T/C",compound 0.1 µM,104% and 109% and 101%
same,"viability, T/C",compound 0.316 µM,109% and 104% and 106%
same,"viability, T/C",compound 1 µM,109% (2×) and 124%
same,"viability, T/C",compound 3.16 µM,104% and 108% and 101%
same,"viability, T/C",compound 10 µM,73.4% and 83.2% and 79%
same,IC50,curve of compound,> 10000 nM
C=CC(=O)N1CCN(c2nc(=O)n(-c3c(C)ccnc3C(C)C)c3nc(-c4c(O)cccc4F)c(F)cc23)C(C)C1 (stereo not given),"viability, T/C",compound 0.0316 µM,105% and 108% and 107%
same,"viability, T/C",compound 0.1 µM,88.5% and 91.5% and 95.3%
same,"viability, T/C",compound 0.316 µM,103% and 107% and 106%
same,"viability, T/C",compound 1 µM,117% and 106% and 121%
same,"viability, T/C",compound 3.16 µM,105% and 91.4% and 112%
same,"viability, T/C",compound 10 µM,113% (2×) and 96.9%
same,IC50,curve of compound,> 10000 nM
CC(=O)O[C@H]1C(=O)[C@@]2(C)[C@H]([C@H](OC(=O)c3ccccc3)[C@]3(O)C[C@H](OC(=O)[C@H](O)[C@@H](NC(=O)c4ccccc4)c4ccccc4)C(C)=C1C3(C)C)[C@]1(OC(C)=O)CO[C@@H]1C[C@@H]2O,"viability, T/C",compound 0.00949 µM,93.8% and 92.4% and 99.8%
same,"viability, T/C",compound 0.03 µM,86.1% and 95.4% and 86.8%
same,"viability, T/C",compound 0.0949 µM,91.8% and 101% and 86.8%
same,"viability, T/C",compound 0.3 µM,90.8% and 96.8% and 89.7%
same,"viability, T/C",compound 0.949 µM,102% and 98.8% and 82.3%
same,"viability, T/C",compound 3 µM,84.5% and 89.3% and 74.2%
same,IC50,curve of compound,> 3000 nM
